According to patent publication US20240132489A1, “AROMATIC HETEROCYCLIC COMPOUND, PHARMACEUTICAL COMPOSITION, AND USE THEREOF” (GT APEIRON THERAPEUTICS LIMITED, priority 2020, published 2024):
Structures can show the parent of a compound that is named as a salt.

Assays:
[1] = biological target: CDK12(aa686-1082)/cyclin K complex (Homo sapiens (Human), UniProt Q9NYV4); assay: In vitro enzymatic inhibitory activity test, CDK12; type: biochemical; details: Caliper mobility shift, 180 min at 27° C.
Sequence of CDK12(aa686-1082)/cyclin K complex (Q9NYV4 686-1082, species assumed): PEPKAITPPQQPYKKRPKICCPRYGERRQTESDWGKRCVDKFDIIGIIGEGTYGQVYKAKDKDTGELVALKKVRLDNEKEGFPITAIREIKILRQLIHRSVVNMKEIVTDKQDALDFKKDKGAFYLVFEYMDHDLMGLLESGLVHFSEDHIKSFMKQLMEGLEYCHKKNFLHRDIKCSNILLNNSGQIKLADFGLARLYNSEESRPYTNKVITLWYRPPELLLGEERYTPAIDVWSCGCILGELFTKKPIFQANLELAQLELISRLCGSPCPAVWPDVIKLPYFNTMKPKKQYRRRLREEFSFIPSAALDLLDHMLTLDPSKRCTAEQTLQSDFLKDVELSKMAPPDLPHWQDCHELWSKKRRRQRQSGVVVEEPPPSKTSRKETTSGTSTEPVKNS
Sequence of CDK12(aa686-1082)/cyclin K complex (O75909 whole entry partner, species assumed, the tested form may be a part): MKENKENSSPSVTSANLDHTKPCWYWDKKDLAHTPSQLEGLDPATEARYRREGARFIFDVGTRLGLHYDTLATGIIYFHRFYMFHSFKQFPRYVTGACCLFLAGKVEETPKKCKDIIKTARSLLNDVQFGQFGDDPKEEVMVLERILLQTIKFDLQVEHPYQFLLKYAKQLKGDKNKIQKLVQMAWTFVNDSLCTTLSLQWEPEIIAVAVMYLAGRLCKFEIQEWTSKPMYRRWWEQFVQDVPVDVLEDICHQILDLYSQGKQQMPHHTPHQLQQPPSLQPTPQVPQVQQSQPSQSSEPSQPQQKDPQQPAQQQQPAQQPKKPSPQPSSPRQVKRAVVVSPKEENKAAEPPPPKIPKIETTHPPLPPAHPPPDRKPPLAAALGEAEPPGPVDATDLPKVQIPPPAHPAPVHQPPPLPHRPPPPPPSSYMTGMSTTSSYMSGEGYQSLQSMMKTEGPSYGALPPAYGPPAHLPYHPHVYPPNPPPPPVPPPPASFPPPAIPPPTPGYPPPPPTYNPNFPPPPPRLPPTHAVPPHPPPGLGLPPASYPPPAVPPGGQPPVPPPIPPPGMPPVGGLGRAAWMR

[2] = biological target: CDK7/cyclin H/MAT1 complex (Homo sapiens (Human), UniProt P50613); assay: In vitro enzymatic inhibitory activity test, CDK7; type: biochemical; details: Caliper mobility shift, 180 min at 27° C.
Sequence of CDK7/cyclin H/MAT1 complex (P50613 whole entry, species assumed): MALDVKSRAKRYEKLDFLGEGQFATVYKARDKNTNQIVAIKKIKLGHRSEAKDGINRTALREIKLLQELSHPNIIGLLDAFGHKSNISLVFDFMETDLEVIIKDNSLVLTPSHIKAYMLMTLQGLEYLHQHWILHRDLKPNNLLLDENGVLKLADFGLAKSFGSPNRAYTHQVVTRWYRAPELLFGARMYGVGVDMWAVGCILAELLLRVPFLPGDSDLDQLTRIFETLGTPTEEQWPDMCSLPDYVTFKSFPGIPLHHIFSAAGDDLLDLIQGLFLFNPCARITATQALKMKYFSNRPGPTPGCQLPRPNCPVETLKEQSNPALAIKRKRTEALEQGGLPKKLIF
Sequence of CDK7/cyclin H/MAT1 complex (P51946 whole entry partner, species assumed): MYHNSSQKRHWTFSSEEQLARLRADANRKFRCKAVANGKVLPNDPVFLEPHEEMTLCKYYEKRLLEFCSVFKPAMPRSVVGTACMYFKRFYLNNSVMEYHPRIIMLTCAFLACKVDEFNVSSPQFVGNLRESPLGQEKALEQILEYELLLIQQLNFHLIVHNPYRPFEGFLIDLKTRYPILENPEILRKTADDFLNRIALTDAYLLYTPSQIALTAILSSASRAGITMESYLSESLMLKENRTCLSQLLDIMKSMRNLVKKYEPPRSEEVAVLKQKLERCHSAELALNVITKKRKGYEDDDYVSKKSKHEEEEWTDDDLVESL
Sequence of CDK7/cyclin H/MAT1 complex (P51948 whole entry partner, species assumed): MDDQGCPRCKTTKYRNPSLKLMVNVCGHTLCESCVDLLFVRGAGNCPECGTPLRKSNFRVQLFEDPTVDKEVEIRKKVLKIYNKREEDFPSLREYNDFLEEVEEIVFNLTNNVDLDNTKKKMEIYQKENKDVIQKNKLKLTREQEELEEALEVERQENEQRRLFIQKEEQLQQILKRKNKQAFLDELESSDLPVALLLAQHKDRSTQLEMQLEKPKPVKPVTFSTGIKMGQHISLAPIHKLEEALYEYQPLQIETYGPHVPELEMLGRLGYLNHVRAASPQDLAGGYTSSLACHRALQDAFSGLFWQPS

A2780 cells = assay: Cell bioactivity detection (CyQuant), A2780; type: cell-based, human; details: Homo sapiens, A2780, 72 h, ovarian carcinoma cells A2780, 72 hours
Summary of the method: (§1)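 A2780 or HCC70 cells (2000/well, RPMI 1640 + 10% FBS) were seeded overnight, then treated for 72 h at 37° C, 5% CO2 with compound: top 10 μM, 1:4 dilutions, 9 points, 0.2% DMSO. Viable cell number was measured by CyQuant Direct nucleic-acid staining (≥60 min, 37° C) on an Acumen reader at 488 nm excitation, and IC50 was calculated.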

CDK2/cyclin E1 complex = CDK2/cyclin E1 complex (Homo sapiens (Human), UniProt P24941); assay: In vitro enzymatic inhibitory activity test, CDK2; type: biochemical; details: Caliper mobility shift, 180 min at 27° C.
HCC70 cells = assay: Cell bioactivity detection (CyQuant), HCC70; type: cell-based; details: Homo sapiens, HCC70, 72 h, human breast cancer cells HCC70, 72 hours
Summary of the method: as §1

CDK9/CyclinT1 = CDK9/CyclinT1 (Homo sapiens (Human), UniProt P50750); assay: In vitro enzymatic inhibitory activity test, CDK9; type: biochemical; details: Caliper mobility shift, 180 min at 27° C.
Sequence of CDK9/CyclinT1 (P50750 whole entry, species assumed): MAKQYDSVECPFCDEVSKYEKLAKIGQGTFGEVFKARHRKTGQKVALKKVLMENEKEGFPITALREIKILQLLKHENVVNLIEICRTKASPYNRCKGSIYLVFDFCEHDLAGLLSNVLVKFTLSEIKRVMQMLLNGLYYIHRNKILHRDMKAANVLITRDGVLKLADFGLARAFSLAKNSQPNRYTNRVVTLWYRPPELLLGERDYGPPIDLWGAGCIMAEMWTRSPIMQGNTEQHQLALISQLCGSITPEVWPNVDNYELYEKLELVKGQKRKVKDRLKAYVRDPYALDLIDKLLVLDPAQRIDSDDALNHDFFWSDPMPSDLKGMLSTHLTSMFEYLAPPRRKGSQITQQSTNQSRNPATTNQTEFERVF
Sequence of CDK9/CyclinT1 (O60563 whole entry partner, species assumed): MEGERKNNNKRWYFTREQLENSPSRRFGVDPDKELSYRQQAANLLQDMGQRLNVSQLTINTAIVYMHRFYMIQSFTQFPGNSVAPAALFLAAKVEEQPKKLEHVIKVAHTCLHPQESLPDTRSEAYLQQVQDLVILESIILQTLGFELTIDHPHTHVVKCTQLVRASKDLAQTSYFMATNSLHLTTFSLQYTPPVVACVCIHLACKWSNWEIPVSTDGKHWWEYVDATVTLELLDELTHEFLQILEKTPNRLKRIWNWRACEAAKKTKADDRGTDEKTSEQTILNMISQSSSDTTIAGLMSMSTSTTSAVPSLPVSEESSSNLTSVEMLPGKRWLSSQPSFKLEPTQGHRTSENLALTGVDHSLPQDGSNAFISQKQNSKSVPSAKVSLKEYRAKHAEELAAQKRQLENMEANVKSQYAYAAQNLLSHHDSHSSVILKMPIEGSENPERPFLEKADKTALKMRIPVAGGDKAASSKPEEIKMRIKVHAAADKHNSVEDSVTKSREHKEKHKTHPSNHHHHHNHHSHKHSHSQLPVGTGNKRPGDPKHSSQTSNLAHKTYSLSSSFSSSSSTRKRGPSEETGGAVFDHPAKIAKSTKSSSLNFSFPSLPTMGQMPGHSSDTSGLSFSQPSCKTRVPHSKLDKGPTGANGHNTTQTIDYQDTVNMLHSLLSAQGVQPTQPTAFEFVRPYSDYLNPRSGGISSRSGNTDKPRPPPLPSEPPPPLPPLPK

SMILES | IC50 [1] [nM] | IC50 [2] [nM] | IC50 (A2780 cells) [nM] | IC50 (CDK2/cyclin E1 complex) [nM] | IC50 (HCC70 cells) [nM] | IC50 (CDK9/CyclinT1) [nM]
CP(C)(=O)c1ccc2c(-c3nc(N[C@H]4CCCNC4)ncc3C(F)(F)F)c[nH]c2n1 [Compound 114, (S)-dimethyl(3-(2-(piperidine-3-amino)-5-(trifluoromethyl)pyrimidin-4-yl)-1H-pyrrolo[2,3-b]pyridin-6-yl)phosphine oxide formate] | 1210 | 6.73 | 17.6 | 1720 | 18.1 | 2470
FC(F)(F)c1cnc(N[C@H]2CCCNC2)nc1-c1c[nH]c2nc(N3CC4CC(C3)O4)ccc12 [Compound 34, 4-(6-(6-oxo-3-azabicyclo[3.1.1]heptan-3-yl)-1H-pyrrol[2,3-b]pyridin-3-yl)-N—((S)-piperidin-3-yl)-5-(trifluoromethyl)pyrimidine-2-amine] | 1090 | 40.2 | 3.3 | 1270 | 15 | 1660
CC1COCCC1c1ccc2c(-c3nc(N[C@H]4CCCNC4)ncc3C(F)(F)F)c[nH]c2n1 (stereo partly drawn) [Compound 110, 4-(6-(3-methyltetrahydropyran-4-yl)-1H-pyrrol[2,3-b]pyridin-3-yl)-N—((S)-piperidin-3-yl)-5-(trifluoromethyl)pyrimidine-2-amine formate] | 1610 | 3.48 | 38.6 | 2180 | 38.6 | 4260
FC(F)(F)c1cnc(N[C@H]2CCCNC2)nc1-c1c[nH]c2nc(N3CC4CCC3CO4)ccc12 (stereo partly drawn) [Compound 32, 4-(6-(2-oxo-5-azabicyclo[2.2.2]octan-5-yl)-1H-pyrrol[2,3-b]pyridin-3-yl)-N—((S)-piperidin-3-yl)-5-(trifluoromethyl)pyrimidine-2-amine] | 3430 | 19.9 | 6.3 | 3630 | 24 | 6520
CC1(O)CCN(c2ccc3c(-c4nc(N[C@H]5CCCNC5)ncc4C(F)(F)F)c[nH]c3n2)C1 (stereo partly drawn) [Compound 6, 3-methyl-1-(3-(2-(((S)-piperidin-3-yl)amino)-5-(trifluoromethyl)pyrimidin-4-yl)-1H-pyrrolo[2,3-b]pyridin-6-yl)pyrrolidin-3-ol] | 1840 | 10.4 | 22 | 4380 | 6.7 | 1040
C[C@H]1COCCN1c1ccc2c(-c3nc(N[C@H]4CCC(C)(C)NC4)ncc3C(F)(F)F)c[nH]c2n1 [Compound 26, N—((S)-6,6-dimethylpiperidin-3-yl)-4-(6-((S)-3-methylmorpholinyl)-1H-pyrrolo[2,3-b]pyridin-3-yl)-5-(trifluoromethyl)pyrimidine-2-amine] | > 10000 | 9.5 | 30 | > 10000 | 52 | > 10000
C[C@H]1COCCN1c1ccc2c(-c3nc(N[C@H]4CCC5(CC5)NC4)ncc3C(F)(F)F)c[nH]c2n1 [Compound 70, (S)—N-(4-(6-((S)-3-methylmorpholinyl)-1H-pyrrol[2,3-b]pyridin-3-yl)-5-(trifluoromethyl)pyrimidin-2-yl)-4-azaspiro[2.5]octan-6-amine formate] | 49000 | 41.2 | 146 | 37600 | 484 | > 50000
OC1CCN(c2ccc3c(-c4nc(N[C@H]5CCCNC5)ncc4C(F)(F)F)c[nH]c3n2)CC1 [Compound 3, (S)-1-(3-(2-(piperidin-3-ylamino)-5-(trifluoromethyl)pyrimidin-4-yl)-1H-pyrrolo[2,3-b]pyridin-6-yl)piperidin-4-ol] | 679 | 17.4 | 12 | 2680 | 7.9 | 722
